Assay results as given in US20210299150A1, “AP39 IMPACT ON MITOCHONDRIA, METABOLISM, GENE TRANSCRIPTION REGULATION, CARDIOTOXICITY PROTECTION AND CANCER TREATMENT” (priority 2020, published 2021).

Columns and labels:
[1] = test system: H9C2 cells; test: Crystal violet staining of H9C2 cells, Dox toxicity; format: cell-based, Rat
Experimental: (§1) AP39 treatment also ameliorated Dox toxicity in a model of Rat cardiomyoblast cell line, H9C2. […] There was a narrow window of protection, as 30 μM and 50 μm doses were not as strong as the 40 μM dose (FIGS. 5A and B) in conferring protection. […] Note that Dox caused an apoptotic phenotype in correlation with ROS levels (FIG. 5F, Dox lane). This in vitro AP39 protection is modest when compared to the in vivo scenario. This difference may be due to rapid clearance of toxic metabolites (for instance, higher lactate production, FIG. 10D) and better oxygen supply (AP39 stimulated OCR, FIG. 7C) in vivo and lack of such sophistication in vitro.
(§2) Crystal Violet (CV) assay. For the CV Staining assay, cells were stained with 0.5% crystal violet in 30% ethanol for 10 minutes at room temperature after removal of the medium. The cells were lysed in a 1% SDS (sodium dodecyl sulfate) solution. The absorbance of the solution was measured using a spectrophotometer at a wavelength of 595 nm. FIG. 27.

[2] = test system: DIC in mouse models; test: Dox-induced cardiotoxicity (DIC) in mouse models: heart weight, echocardiography, histology; format: in vivo
Experimental: AP39 treatment ameliorated DIC in mouse models in a dose dependent manner. DIC was induced by giving a single dose of Dox i.p. (FIG. 3A) as reported before^48. AP39 was given for six consecutive days starting with Dox treatment. two different doses of AP39 were tested.
AP39 ameliorated cardiac fibrosis in a dose dependent manner. […] It is possible that lower doses of AP39 might have induced favorable metabolic changes which are enough to improve heart function but not sufficient to protect from cardiac cell death after Dox. These findings needs to be confirmed in a larger study.

[3] = test system: 786-O cells renal cancer cells; test: Cell viability of 786-O renal cancer cells; format: cell-based
Experimental: (§3) Methods for cell viability: Cells were plated in 96 wells/6 wells cell culture plates. After 24 hrs of plating, the treatments (added in the growth medium) were conducted. The following assays were performed after 24 hrs of the treatments (day 2). (FIGS. 15A, 17-20, 24-27)
(§4) MTT assay methods. For the MTT assay, […] of 5 mg/ml MTT-tetrazolium salts in PBS was added to each well containing the growth medium. After 3 hours of incubation, the medium was removed and the formazan crystals were dissolved by adding DMSO. The absorption of the formazan solution was measured using a spectrophotometer at a wavelength of 570 nm. FIGS. 15B, 21-22.
786-O cells renal cancer cells were exposed to control, AP39 (AP) at 40 or 60 μM, Doxorubicin at 2.5 or 20 μM, thiolactate at 10 mM, AP39 and Doxorubicin, AP39 and thiolactate, or Doxorubicin and Thiolactate. […] FIGS. 18 and 21.

[4] = test system: H9C2 cells; test: Mitochondrial ROS, MitoSox Red, H9C2; format: cell-based, Rat; conditions: H9C2, AP39 and Dox co-treatment
Experimental: as §1

[5] = test system: Myc/Max-regulated transcripts; test: RNAseq analysis in H9C2 cell line; format: cell-based, Rat
Experimental: The coverage among groups are indicated.
Next, to interrogate mechanisms of AP39 protection against DIC, RNAseq analysis was performed. There was sufficient coverage of the whole transcriptome among the groups (FIG. 8A).

[6] = test system: MCF7 breast cancer cells; test: Cell viability (MTT, crystal violet) of MCF7 breast cancer cells; format: cell-based
Experimental: as §3, §4, §2
MCF7 breast cancer cells were exposed to control, AP39 (AP) at 40 or 60 μM, Doxorubicin at 2.5 or 20 μM, thiolactate at 10 mM, AP39 and Doxorubicin, AP39 and thiolactate, or Doxorubicin and Thiolactate. […] FIGS. 26-27.

[7] = AP39 40 or 60 μM, thiolactate 10 mM, 24 hrs
[8] = combination with Doxorubicin 2.5 μM

O=C(CCCCCCCCC[P+](c1ccccc1)(c1ccccc1)c1ccccc1)Oc1ccc(-c2cc(=S)ss2)cc1.[Br-] [AP39]
protection against Dox toxicity, crystal violet staining ([1]; H9C2, AP39 with Dox): significant protection | AP39 dose conferring strongest protection (30 and 50 not as strong) ([1]; H9C2, crystal violet, with Dox): 40 µM | heart weight decline seen during Dox treatment ([2]; AP39 higher dose 0.642 mg/kg, six consecutive days, single dose of Dox i.p.): effective in countering heart weight decline | left ventricular dysfunction (echocardiography) ([2]; both doses of AP39, six consecutive days, single dose of Dox i.p.): effective in ameliorating left ventricular dysfunction | Dox induced fibrosis and cell infiltration (histological sections) ([2]; higher AP39 dose): prevented Dox induced fibrosis and cell infiltration | cardiac pathology (fibrosis, cell infiltration) ([2]; lower AP39 dose): not cardiac pathology | cell killing, agent alone [3, 7]: able to kill renal cancer cells | potency of low doses of Doxorubicin [3, 8]: able to increase the potency of low doses of Doxorubicin | ROS in mitochondria (MitoSox Red) [4]: significant amelioration of ROS in mitochondria | abnormal transcriptional changes induced after Dox treatment, global level (RNAseq) ([5]; H9C2, AP39+Dox): significantly reversed abnormal transcriptional changes | Myc transcription ([5]; H9C2, AP39 with Dox): restored Myc transcription | cell killing, agent alone [6, 7]: able to kill breast cancer cells | potency of low doses of Doxorubicin [6, 8]: able to increase the potency of low doses of Doxorubicin
